Measured values from patent US20100121048A1, “Cyclic Amine Compound and Use Thereof for the Prophylaxis or Treatment of Hypertension” (priority 2006, published 2010).

Biological target: T1, Human renin (Homo sapiens, UniProt P00797)
T1 construct: taking the active type (67-406); made in house; host or cells: FreeStyle 293-F cells (transient expression of pcDNA3.1(+)/hREN)
T1 sequence (P00797 67-406): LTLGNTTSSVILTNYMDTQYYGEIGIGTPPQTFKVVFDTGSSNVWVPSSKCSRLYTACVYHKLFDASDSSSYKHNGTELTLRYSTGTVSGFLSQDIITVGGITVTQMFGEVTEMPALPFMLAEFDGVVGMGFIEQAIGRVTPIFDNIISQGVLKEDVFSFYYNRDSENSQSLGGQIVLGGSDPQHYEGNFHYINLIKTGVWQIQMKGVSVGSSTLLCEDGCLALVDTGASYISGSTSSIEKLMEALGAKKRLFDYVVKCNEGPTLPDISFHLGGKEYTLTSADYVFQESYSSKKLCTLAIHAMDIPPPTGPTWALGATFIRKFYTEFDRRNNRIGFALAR
Experiment: Measurement of renin inhibition value (human renin, FITC substrate peptide, capillary electrophoresis)
Assay type: biochemical
Conditions: active type renin (67-406), pH 6.0, 37° C., 30 min; for inhibition at 1 µM: test compound 1 μM, read-out: Human Renin Inhibitory Activity: inhibitory activity (%) at 1 μM; for inhibition at 10 µM: test compound 10 μM, read-out: Human Renin Inhibitory Activity: inhibitory activity (%) at 10 μM
Method: Human renin was obtained by expressing preprorenin (1-406) in an animal cell, treating the prorenin (24-406) contained in the culture supernatant with trypsin, and taking the active type (67-406).
A plasmid DNA to express human renin in HEK293 cells was prepared as follows. PCR was carried out using human renal cDNA (Clontech Laboratories, Inc., Marathon Ready cDNA) as the template and using two synthetic DNAs (5′-[…]-3′ AND 5′-[…]-3′), and the obtained fragments were cloned using a TOPO TA Cloning Kit (Invitrogen Corp.). The obtained fragments were subcloned into pcDNA3.1(+) that had been cleaved by HindIII and BamHI, thus to obtain a plasmid DNA for human preprorenin expression (PcDNA3.1(+)/hREN).
Expression of human preprorenin was conducted using FreeStyle 293 Expression System (Invitrogen Corp.). According to the manual accompanying the FreeStyle 293 Expression System, the plasmid DNA for human preprorenin expression (pcDNA3.1(+)/hREN) constructed in Experimental Example 1 was used to conduct transient expression by FreeStyle 293-F cells. After transfection of the plasmid DNA, the cells were subjected to shaking culture under the conditions of 37° C., 8% CO2 and 125 rpm for 3 days. A 600-ml aliquot of the culture solution was centrifuged at 2,000 rpm for 10 min to recover the culture supernatant containing prorenin (24-406). The culture supernatant was concentrated by ultrafiltration using a PM10 membrane (Millipore, Inc.) to a volume of about 50 ml, and then was dialyzed against 20 mM Tris-hydrochloric acid (pH 8.0). The dialyzate was fed to a 6-ml RESOURCE Q column (Amersham Biosciences, Inc.) equilibrated with 20 mM Tris-hydrochloric acid (pH 8.0) at a flow rate of 3 ml/min to adsorb the prorenin (24-406). After washing the column with the buffer solution used in the equilibration, elution was carried out by means of a linear concentration gradient of sodium chloride from 0 M to 0.4 M. The fraction containing prorenin (24-406) was collected and concentrated using Vivaspin 20 (molecular weight cut off 10,000; Vivascience, Inc.) to a volume of about 2 ml.
The concentrated liquid was subjected to gel filtration chromatography using HiLoad 16/60 Superdex 200 pg (Amersham Biosciences, Inc.) equilibrated with 20 mM Tris-hydrochloric acid (pH 8.0) containing 0.15 M sodium chloride, at a flow rate of 1.4 ml/min, thus to obtain 3.6 mg of purified prorenin (24-406).
To 3.6 mg of prorenin (24-406) was dissolved in 5.2 ml of 0.1 M Tris-hydrochloric acid (pH 8.0), 12 μg of trypsin (Roche Diagnostics Corp.) was added, and the mixture was allowed to react at 28° C. for 55 min to carry out activation of renin. After the reaction, 0.4 ml of immobilized trypsin inhibitor (Pierce Biotechnology, Inc.) was added to remove the trypsin used in the activation by adsorption. The reaction liquid containing the active type renin was concentrated using Vivaspin 20 (molcular weight cut off 10,000; Vivascience, Inc.), and was diluted with 20 mM Tris-hydrochloric acid (pH 8.0). The diluted liquid was fed to a TSKgel DEAE-5 PW column (7.5 mm I.D.×75 mm, Tosoh Corp.) equilibrated with 20 mM Tris-hydrochloric acid (pH 8.0) at a flow rate of 1 ml/min to adsorb the active type renin (67-406). The column was washed with the buffer solution used for the equilibration, and then elution was carried out by means of a sodium chloride linear concentration gradient from 0 M to 0.3 M, thus to obtain 1.5 mg of a purified product of active type renin (67-406).
5 μl each of the test compound (containing 50% DMSO) was added to each well of a 384-well black plate (Nalge Nunc International Co., Ltd.). Renin was diluted with a buffer solution for reaction (20 mM citric acid-sodium citrate (pH 6.0)) to a concentration of 0.5 μg/ml, and 35 μl each of the dilution was added to each well. […]

## Cc1cc(C(=O)N2CCNC[C@H]2Cc2ccccc2)c(-c2ccccc2)n1-c1cccc(N2CCOCC2)c1 [Example 105, 4-(3-(3-{[(2R)-2-benzylpiperazin-1-yl]carbonyl}-5-methyl-2-phenyl-1H-pyrrol-1-yl)phenyl]morpholine]
  inhibition at 1 µM: 102%
  inhibition at 10 µM: 104%

## COc1nc(C(=O)N2CCNC[C@H]2Cc2ccccc2)c(-c2ccccc2)n1-c1ccccc1 [Example 475, (2R)-2-benzyl-1-[(2-methoxy-1,5-diphenyl-1H-imidazol-4-yl)carbonyl]piperazine]
  inhibition at 1 µM: 97%
  inhibition at 10 µM: 99%

## COc1cccc(-n2cnc(C(=O)N3CCNC[C@H]3Cc3ccccc3)c2-c2ccccc2)c1OC [Example 57, (2R)-2-benzyl-1-([1-(2,3-dimethoxyphenyl)-5-phenyl-1H-imidazol-4-yl]carbonyl}piperazine]
  inhibition at 1 µM: 108%
  inhibition at 10 µM: 108%

## O=C(c1ncn(-c2cccc(N3CCOCC3)c2)c1-c1ccccc1)N1CCNC[C@H]1Cc1ccccc1 [Example 56, 4-(3-(4-{[(2R)-2-benzylpiperazin-1-yl]carbonyl}-5-phenyl-1H-imidazol-1-yl)phenyl]morpholine]
  inhibition at 1 µM: 104%
  inhibition at 10 µM: 103%

## O=C(C[C@H](CCc1ccccc1)n1cnc(C(=O)N2CCNC[C@H]2Cc2ccccc2)c1-c1ccccc1)N1CCOCC1 [Example 478, 4-[(3S)-3-(4-{[(2R)-2-benzylpiperazin-1-yl]carbonyl}-5-phenyl-1H-imidazol-1-yl)-5-phenylpentanoyl]morpholine]
  inhibition at 1 µM: 99%
  inhibition at 10 µM: 101%

## COc1ccc(S(=O)(=O)N2CCCC(n3cnc(C(=O)N4CCNC[C@H]4Cc4ccccc4)c3-c3ccccc3)C2)cn1 (stereo partly drawn) [Example 477, (2R)-2-benzyl-1-[(1-{1-[(6-methoxypyridin-3-yl)sulfonyl]piperidin-3-yl}-5-phenyl-1H-imidazol-4-yl)carbonyl]piperazine]
  inhibition at 1 µM: 102%
  inhibition at 10 µM: 104%

## O=C(O)c1ccc(C[C@@H]2CNCCN2C(=O)c2ncn(-c3cccc(N4CCOCC4)c3)c2-c2ccccc2)cc1 [Example 161, 4-[((2R)-1-{[1-(3-morpholinophenyl)-5-phenyl-1H-imidazol-4-yl]carbonyl}piperazin-2-yl)methyl]benzoic acid]
  inhibition at 1 µM: 100%
  inhibition at 10 µM: 101%

## CS(=O)(=O)c1ccc(COC[C@@H]2CNCCN2C(=O)c2ncn(-c3cccc(N4CCOCC4)c3)c2-c2ccccc2)cc1 [Example 472, 4-[3-(4-{[(2S)-2-({[4-(methylsulfonyl)benzyl]oxy}methyl)piperazin-1-yl]carbonyl}-5-phenyl-1H-imidazol-1-yl)phenyl]morpholine]
  inhibition at 1 µM: 100%
  inhibition at 10 µM: 102%

## O=C(c1ncn(C2CCCN(S(=O)(=O)c3ccccc3)C2)c1-c1ccccc1)N1CCNC[C@H]1Cc1ccccc1 (stereo partly drawn) [Example 476, (2R)-2-benzyl-1-({5-phenyl-1-[1-(phenylsulfonyl)piperidin-3-yl]-1H-imidazol-4-yl}carbonyl)piperazine]
  inhibition at 1 µM: 99%
  inhibition at 10 µM: 99%

## CCCCNc1ccccc1-n1ccc(C(=O)N2CCNCC2Cc2ccccc2)c1-c1ccccc1 (racemic) [Example 99, 2-(3-[(2-benzylpiperazin-1-yl)carbonyl]-2-phenyl-1H-pyrrol-1-yl}-N-butylaniline]
  inhibition at 1 µM: 105%
  inhibition at 10 µM: 107%

## COc1cccc(-n2c(C)cc(C(=O)N3CCNC[C@H]3Cc3ccccc3)c2-c2ccccc2)c1OC [Example 43, (2R)-2-benzyl-1-{[1-(2,3-dimethoxyphenyl)-5-methyl-2-phenyl-1H-pyrrol-3-yl]carbonyl}piperazine]
  inhibition at 1 µM: 104%
  inhibition at 10 µM: 106%

## O=C(c1ncn(C2Cc3ccccc3C2)c1-c1ccccc1)N1CCNC[C@H]1Cc1ccccc1 [Example 73, (2R)-2-benzyl-1-{[1-(2,3-dihydro-1H-inden-2-yl)-5-phenyl-1H-imidazol-4-yl]carbonyl}piperazine]
  inhibition at 1 µM: 97%
  inhibition at 10 µM: 101%
